Earlier results, collected in patent US20040229941A1, “Analeptic and antidepressant combinations” (Cephalon, Inc., priority 2003, published 2004).

Settings: at 6 weeks of antidepressant therapy

## CNCCC(Oc1ccc(C(F)(F)F)cc1)c1ccccc1 (stereo not shown) [fluoxetine]
  response: about 50%
